Reference: patent EP2061765B1, “Serine-threonine protein kinase and PARP modulators” (Senhwa Biosciences, Inc., priority 2006, dated 2008)

Legend:
K-562 = test: Cell proliferation assay (Alamar Blue); format: cell-based; settings: Homo sapiens, K562, 96 h, K-562 cells, four days
A549 = test: Cell proliferation assay (Alamar Blue); format: cell-based; settings: Homo sapiens, 96 h, A549 cells, four days
How it was run: (§1)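 Plate 4,000-5,000 cells per well, add 2X compound dilutions, and incubate four days at 37°C, 5% CO2. Add Alamar Blue, incubate four hours, then record fluorescence (544/590 nm).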

HL-60 = test: Cell proliferation assay (Alamar Blue); format: cell-based; settings: Homo sapiens, 96 h, HL-60 cells, four days
How it was run: as §1

LNCaP = test: Cell proliferation assay (Alamar Blue); format: cell-based; settings: Homo sapiens, 96 h, LNCaP cells, four days
How it was run: as §1

MDAMB231 = test: Cell proliferation assay (Alamar Blue); format: cell-based; settings: Homo sapiens, MDA-MB-231, 96 h, MDAMB231 cells, four days
How it was run: as §1

Raji = test: Cell proliferation assay (Alamar Blue); format: cell-based; settings: Homo sapiens, 96 h, Raji cells, four days
How it was run: as §1

MCF-7 = test: Cell proliferation assay (Alamar Blue); format: cell-based; settings: Homo sapiens, MCF7, 96 h, MCF-7 cells, four days
How it was run: as §1

H460 = test: Cell proliferation assay (Alamar Blue); format: cell-based; settings: Homo sapiens, NCI-H460, 96 h, H460 cells, four days
How it was run: as §1

BxPC3 = test: Cell proliferation assay (Alamar Blue); format: cell-based; settings: Homo sapiens, BXPC-3, 96 h, BxPC3 cells, four days
How it was run: as §1

PanC1 = test: Cell proliferation assay (Alamar Blue); format: cell-based; settings: Homo sapiens, PANC-1, 96 h, PanC1 cells, four days
How it was run: as §1

MCF-10A = test: Cell proliferation assay (Alamar Blue); format: cell-based; settings: Homo sapiens, 96 h, MCF-10A cells, four days
How it was run: as §1

SK-OV-3 = test: Cell proliferation assay (Alamar Blue); format: cell-based; settings: Homo sapiens, 96 h, SK-OV-3 cells, four days
How it was run: as §1

COLO205 = test: Cell proliferation assay (Alamar Blue); format: cell-based; settings: Homo sapiens, COLO 205, 96 h, COLO205 cells, four days
How it was run: as §1

HT29 = test: Cell proliferation assay (Alamar Blue); format: cell-based; settings: Homo sapiens, HT-29, 96 h, HT29 cells, four days
How it was run: as §1

HL-60/MX2 = test: Cell proliferation assay (Alamar Blue); format: cell-based; settings: Homo sapiens, HL60/MX2, 96 h, HL-60/MX2 cells, four days
How it was run: as §1

[1] = Pharmacokinetics after IV and PO dosing
Procedure: The pharmacokinetics properties of drugs were investigated in ICR mice following an intravenous (IV) bolus and oral (PO) doses of drug at 5 mg/kg and 25 mg/kg respectively. Blood samples were collected at predetermined times and the plasma separated. Plasma was separated from the blood samples collected at 5,15 and 30 minutes and 1, 2, 4, 8 and 24 hours post-dose.
Drug levels were quantified by the LC/MS/MS method described below. Noncompartmental pharmacokinetic analysis was applied for intravenous administration. […] The terminal t1/2 and Co were calculated using the last three and the first three data points, respectively
Bioanalysis was performed using a Quattro Micro LC/MS/MS instrument in the MRM detection mode, with an internal standard (IS). Briefly, 15 µL plasma samples were prepared for analysis using protein precipitation with 120 µL of acetonitrile. The supernatants were transferred into a 96 well plate and subjected to LC-MS/MS analysis using a Phenomenex Polar-RP HPLC column. The mobile phases were 10 mM NH4HCO3 in water (Solution-A) and 10 mM NH4HCO3 in methanol (Solution-B). […] Quantitation of the analytes was performed in the batch mode with two bracketing calibration curves according to the bioanalytical sample list

Structure (SMILES) | IC50 (K-562) [µM] | IC50 (A549) [µM] | IC50 (HL-60) [µM] | IC50 (LNCaP) [µM] | IC50 (MDAMB231) [µM] | IC50 (Raji) [µM] | IC50 (MCF-7) [µM] | IC50 (H460) [µM] | IC50 (BxPC3) [µM] | IC50 (PanC1) [µM] | IC50 (SK-OV-3) [µM] | IC50 (COLO205) [µM] | IC50 (HT29) [µM] | further results
O=C(O)c1ccc2c(c1)nc(Nc1ccccc1)c1ccncc12 [drawing 372] | 4.01 | 4.16 | 4.86 | 8.18 | 2.66 | 13.7 | 10.8 | – | – | – | – | – | – | –
O=C(O)c1ccc2c(c1)nc(Nc1ccc(F)c(Cl)c1)c1ccncc12 [drawing 373] | 4.95 | 6.83 | 1.92 | 4.57 | 6.13 | 4.51 | 8.24 | – | – | – | – | – | – | –
O=C(O)c1ccc2c(c1)nc(Nc1cccc(Cl)c1)c1ccncc12 [drawing 376] | 2.99 | 6.59 | 2.64 | 4.89 | – | 3.32 | 17.7 | – | – | – | – | – | – | –
O=C(O)c1ccc2c(c1)nc(Nc1cc(F)cc(F)c1)c1ncncc12 [drawing 377] | 2.41 | 24.6 | 1.85 | 1.83 | 3.1 | 8.47 | 2.02 | – | – | – | – | – | – | –
O=C(O)c1ccc2c(c1)nc(Nc1cccc(F)c1)c1ncncc12 [drawing 378] | 1.77 | 14.1 | 9.68 | 1.36 | 0.84 | 4.51 | 1.06 | – | – | – | – | – | – | –
O=C(O)c1ccc2c(c1)nc(Nc1cccc(Cl)c1)c1ncncc12 [drawing 379] | 1.13 | 28.5 | 7.35 | 1.56 | 1.18 | – | 1.79 | – | – | – | – | – | – | –
C#Cc1cccc(Nc2nc3cc(C(=O)O)ccc3c3cncnc23)c1 [drawing 380] | 1.2 | 21.2 | 4.49 | 1.4 | 4.25 | 3.38 | 1.27 | – | – | – | – | – | – | –
CNc1ncc2c(n1)c(Nc1ccccc1)nc1cc(C(=O)O)ccc12 [drawing 383] | – | 13.9 | 0.73 | 1.44 | 2.38 | 4.97 | 3.4 | – | – | – | – | – | – | –
O=C(O)c1ccc2c(c1)nc(Nc1ccc(Cl)cc1)c1ccncc12 [drawing 384] | 8.65 | 9.74 | 3.74 | 7.39 | 3.79 | 5.46 | 0.76 | – | – | – | – | – | – | –
C#Cc1cccc(Nc2nc3cc(C(=O)O)ccc3c3cnccc23)c1 [drawing 385] | 3.33 | 30.2 | 5.59 | 17.1 | 11.8 | 4.28 | 1.43 | – | – | – | – | – | – | –
O=C(O)c1ccc2c(c1)nc(Nc1cc(F)cc(F)c1)c1ccncc12 [drawing 387] | 3.26 | 27.4 | 4.81 | 10.8 | 11 | 6.35 | 1.89 | – | – | – | – | – | – | –
O=C(O)c1ccc2c(c1)nc(Nc1ccccc1)c1ccncc12 [drawing 443] | – | – | – | – | – | – | – | 37.5 | 10.8 | > 50 | 20.7 | 8.92 | – | IC50 (MCF-10A): 3.84 µM
O=C(O)c1ccc2c(c1)nc(Nc1ccc(F)c(Cl)c1)c1ccncc12 [drawing 444] | – | – | – | – | – | – | – | 8.69 | 1.5 | 1.84 | 7.33 | 2.2 | – | –
O=C(O)c1ccc2c(c1)nc(Nc1cccc(F)c1)c1ccncc12 [drawing 447] | – | – | – | – | – | – | – | – | – | – | – | – | 12.8 | –
O=C(O)c1ccc2c(c1)nc(Nc1cccc(Cl)c1)c1ccncc12 [drawing 448] | – | – | – | – | – | – | – | 10.3 | 2.75 | 17.8 | 9.03 | 1.96 | 1.56 | IC50 (MCF-10A): 0.53 µM; IC50 (HL-60/MX2): 10.5 µM
O=C(O)c1ccc2c(c1)nc(Nc1cc(F)cc(F)c1)c1ncncc12 [drawing 449] | – | – | – | – | – | – | – | 4.19 | 3.34 | 9.34 | 6.98 | 5.69 | 12.4 | IC50 (MCF-10A): 1.08 µM
O=C(O)c1ccc2c(c1)nc(Nc1cccc(F)c1)c1ncncc12 [drawing 450] | – | – | – | – | – | – | – | 6.16 | 3.48 | 3.79 | 14.4 | 6.16 | 17 | –
O=C(O)c1ccc2c(c1)nc(Nc1cccc(Cl)c1)c1ncncc12 [drawing 451] | – | – | – | – | – | – | – | 4.1 | 1.48 | 18.7 | 8.97 | 8.62 | 13 | –
C#Cc1cccc(Nc2nc3cc(C(=O)O)ccc3c3cncnc23)c1 [drawing 452] | – | – | – | – | – | – | – | 7.33 | 2.58 | 2.34 | 20.2 | 7.04 | 12.4 | IC50 (MCF-10A): 0.64 µM; IC50 (HL-60/MX2): 8.81 µM
CNc1ncc2c(n1)c(Nc1ccccc1)nc1cc(C(=O)O)ccc12 [drawing 455] | – | – | – | – | – | – | – | 4.06 | 1.83 | 15.9 | 1.06 | 9.56 | 15.3 | IC50 (HL-60/MX2): 5.68 µM
O=C(O)c1ccc2c(c1)nc(Nc1ccc(Cl)cc1)c1ccncc12 [drawing 456] | – | – | – | – | – | – | – | 9.1 | 6.38 | 25.8 | 15.3 | 1.57 | 26.9 | –
C#Cc1cccc(Nc2nc3cc(C(=O)O)ccc3c3cnccc23)c1 [drawing 457] | – | – | – | – | – | – | – | 13.8 | 3.7 | 4.07 | 23.4 | 4.44 | 45.5 | IC50 (MCF-10A): 0.73 µM
O=C(O)c1ccc2c(c1)nc(Nc1cc(F)cc(F)c1)c1ccncc12 [drawing 459] | – | – | – | – | – | – | – | 7.53 | 1.63 | 24 | 10.1 | 3.62 | 16.6 | –
N#Cc1cccc(Nc2nc3cc(C(=O)O)ccc3c3cnccc23)c1 [drawing 460] | – | – | – | – | – | – | – | – | 3.62 | > 50 | – | – | 41.8 | –
C#Cc1cccc(Nc2nc3cc(C(=O)O)ccc3c3cncnc23)c1 [drawing 547] | – | – | – | – | – | – | – | – | – | – | – | – | – | F(0-Inf) ([1]; ICR mice, PO 24.5 mg/kg): 31.1%; F([…]) ([1]; ICR mice, PO 24.5 mg/kg): 26.5%; Kel ([1]; ICR mice, PO 24.5 mg/kg): 0.0594 h⁻¹; AUC(0-t) at 8 h ([1]; mouse, plasma, po, 24.5 mg/kg): 6000 ng·h/mL
